# Experimental data reported in patent US8785614B2, “Aberrantly methylated genes in pancreatic cancer” (The Johns Hopkins University, priority 2003, dated 2014).
# System: MiaPaCa2 pancreatic cancer cell line
# Assay: Oligonucleotide microarray gene expression after TSA (1 μM, 24 h) vs mock
# Format: cell-based, human
# Procedure: Mock-treated cells were cultured with the equivalent volume of PBS alone.
# Total RNA was isolated from cultured cells using TRIZOL reagent (invitrogen, Carlsbad, Calif.) and purified using RNeasy Mini Kit (Qiagen, Valencia, Calif.). First- and second-stranded cDNA was synthesized from 10 μg of total RNA using 17-dT) primer (Genset Corp., La Jolla, Calif.) and Superscript Choice system (Invitrogen). Labeled cRNA was synthesized from the purified cDNA by in vitro transcription reaction using the BioArray High Yield RNA Transcript Labeling Kit (Enzo Diagnostics, Inc., Farmingdale, N.Y.) at 37° C. for 6 h. The cRNA was fragmented at 94° C. for 35 min. in a fragmentation buffer [40 mM Tris-acetate @ pH 8.1, 100 mM potassium acestate, and 30 mM magnesium acetate]. The fragmented cRNA was then hybridized to the Human Genome U133A chips (Affymetrix, Santa Clara, Calif.) with 18462 unique gene/EST transcripts at 45° C. for 16 h. The washing and staining procedure was performed in the Affymetrix Fluidics Station according to the manufacturer's instructions. The probes were then scanned using a laser scanner, and signal intensity for each transcript (background-subtracted and adjusted for noise) was calculated using Microarray Suite Software 5.0 (Affymetrix).
# Fold change analysis of signal intensities obtained from oligonucleotide microarrays between the two treatment groups was performed using Data Mining software (Afrymetrix).
smiles,measurement,setting,value
"CC(/C=C/C(=O)NO)=C\[C@@H](C)C(=O)c1ccc(N(C)C)cc1 [TSA, trichostatin A]",Fold-change after TSA treatment,"ADM, MiaPaCa2",5.02 fold
same,Fold-change after TSA treatment,"ANGPT1, MiaPaCa2",1.75 fold
same,Fold-change after TSA treatment,"AREG, MiaPaCa2",3.97 fold
same,Fold-change after TSA treatment,"ATF3, MiaPaCa2",2.14 fold
same,Fold-change after TSA treatment,"BIK, MiaPaCa2",10.05 fold
same,Fold-change after TSA treatment,"CACNA1G, MiaPaCa2",4.61 fold
same,Fold-change after TSA treatment,"CAPN5, MiaPaCa2",5.18 fold
same,Fold-change after TSA treatment,"CDH8, MiaPaCa2",−1.29 fold
same,Fold-change after TSA treatment,"CDKN1C, MiaPaCa2",13.22 fold
same,Fold-change after TSA treatment,"CGR11, MiaPaCa2",3.22 fold
same,Fold-change after TSA treatment,"CHES1, MiaPaCa2",−1.03 fold
same,Fold-change after TSA treatment,"CHFR, MiaPaCa2",1.27 fold
same,Fold-change after TSA treatment,"CLDN15, MiaPaCa2",1.13 fold
same,Fold-change after TSA treatment,"EDR1, MiaPaCa2",5.91 fold
same,Fold-change after TSA treatment,"EGR4, MiaPaCa2",8.67 fold
same,Fold-change after TSA treatment,"EREG, MiaPaCa2",1.7 fold
same,Fold-change after TSA treatment,"GADD45B, MiaPaCa2",5.06 fold
same,Fold-change after TSA treatment,"GAGE1, MiaPaCa2",0.53 fold
same,Fold-change after TSA treatment,"GAGE2, MiaPaCa2",1.31 fold
same,Fold-change after TSA treatment,"GAGE3, MiaPaCa2",−2.68 fold
same,Fold-change after TSA treatment,"GAGE4, MiaPaCa2",1.32 fold
same,Fold-change after TSA treatment,"GAGE6, MiaPaCa2",−2.17 fold
same,Fold-change after TSA treatment,"GAGE7B, MiaPaCa2",−1.76 fold
same,Fold-change after TSA treatment,"H1 historic family, member 2 (BC002649), MiaPaCa2",4.16 fold
same,Fold-change after TSA treatment,"HEP27, MiaPaCa2",26.21 fold
same,Fold-change after TSA treatment,"HMOX1, MiaPaCa2",5.25 fold
same,Fold-change after TSA treatment,"HPSE, MiaPaCa2",14.09 fold
same,Fold-change after TSA treatment,"ID2, MiaPaCa2",2.27 fold
same,Fold-change after TSA treatment,"ING1, MiaPaCa2",13.25 fold
same,Fold-change after TSA treatment,"KLK12, MiaPaCa2",2.91 fold
same,Fold-change after TSA treatment,"MAGE1, MiaPaCa2",5.17 fold
same,Fold-change after TSA treatment,"MBD1, MiaPaCa2",1.28 fold
same,Fold-change after TSA treatment,"MMP1, MiaPaCa2",1.01 fold
same,transcripts with marked induction,MiaPaCa2,207 transcripts
same,"transcripts with marked induction, share of transcripts analyzed",MiaPaCa2,1.1%
same,Fold-change after TSA treatment,"NGFR, MiaPaCa2",13.46 fold
same,Fold-change after TSA treatment,"NOTCH3, MiaPaCa2",−1.04 fold
same,Fold-change after TSA treatment,"P-glycoprotein (mdr1), MiaPaCa2",2.74 fold
same,Fold-change after TSA treatment,"STC1, MiaPaCa2",2.73 fold
same,Fold-change after TSA treatment,"UCPH, MiaPaCa2",6.39 fold
same,Fold-change after TSA treatment,"ULBP2, MiaPaCa2",4.09 fold
same,Fold-change after TSA treatment,"WNT4, MiaPaCa2",3.36 fold
same,Fold-change after TSA treatment,"candidate tumor suppressor gene 21 protein (AF040708), MiaPaCa2",1.15 fold
same,Fold-change after TSA treatment,"connective tissue growth factor (M92934), MiaPaCa2",4.28 fold
same,Fold-change after TSA treatment,"hemoglobin, alpha 1 (HBAI), MiaPaCa2",77.77 fold
same,Fold-change after TSA treatment,"interleukin 8, MiaPaCa2",1.36 fold
same,Fold-change after TSA treatment,"period homolog 1 (PERI), MiaPaCa2",1.28 fold
same,Fold-change after TSA treatment,"prostate differentiation factor (AF003934), MiaPaCa2",16.4 fold
same,Fold-change after TSA treatment,"protease inhibitor 12 (neuroserpin) (SERPINU), MiaPaCa2",44.44 fold
same,Fold-change after TSA treatment,"synovial sarcoma, X breakpoint 1 (BC001003), MiaPaCa2",1.5 fold
same,Fold-change after TSA treatment,"tissue factor pathway inhibitor-2 (L27624), MiaPaCa2",−0.68 fold
